Measured values as given in BindingDB's records for doi:10.1021/jm801583j (Bristol-Myers Squibb, 2009).
pEC50, pKi: −log10 of the molar value.

Molecular target: T1, Androgen receptor (Homo sapiens, UniProt P10275)
T1 sequence (P10275 whole entry): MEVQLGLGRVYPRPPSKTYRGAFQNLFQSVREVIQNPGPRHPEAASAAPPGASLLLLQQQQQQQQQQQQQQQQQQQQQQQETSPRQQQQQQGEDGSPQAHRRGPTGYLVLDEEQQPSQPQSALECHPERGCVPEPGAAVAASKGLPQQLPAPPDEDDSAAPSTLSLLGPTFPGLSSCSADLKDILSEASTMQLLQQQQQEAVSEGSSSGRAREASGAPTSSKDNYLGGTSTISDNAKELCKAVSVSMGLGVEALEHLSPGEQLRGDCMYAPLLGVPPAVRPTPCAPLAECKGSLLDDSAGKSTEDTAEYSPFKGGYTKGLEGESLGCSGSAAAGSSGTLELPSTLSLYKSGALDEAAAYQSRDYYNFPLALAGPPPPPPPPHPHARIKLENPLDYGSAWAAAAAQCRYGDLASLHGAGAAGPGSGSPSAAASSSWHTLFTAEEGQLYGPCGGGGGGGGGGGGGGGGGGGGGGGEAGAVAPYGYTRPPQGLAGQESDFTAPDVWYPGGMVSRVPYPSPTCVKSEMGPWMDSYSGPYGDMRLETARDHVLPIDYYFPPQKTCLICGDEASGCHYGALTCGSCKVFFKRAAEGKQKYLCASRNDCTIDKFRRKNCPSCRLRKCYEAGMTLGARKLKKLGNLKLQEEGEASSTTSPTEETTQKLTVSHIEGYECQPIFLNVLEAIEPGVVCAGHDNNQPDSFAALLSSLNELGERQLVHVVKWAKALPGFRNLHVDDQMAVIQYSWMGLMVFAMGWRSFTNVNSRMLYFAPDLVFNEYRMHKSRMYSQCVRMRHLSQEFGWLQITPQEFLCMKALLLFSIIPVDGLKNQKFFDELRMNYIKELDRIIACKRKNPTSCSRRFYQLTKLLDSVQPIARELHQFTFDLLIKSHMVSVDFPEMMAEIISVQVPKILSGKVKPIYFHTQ
Assay: Receptor Binding Assay (Ki) and Transactivation Assay (EC50)
Conditions: pH 7.6; 22 °C
Method: Binding assays were conducted by incubating test compound at various concentrations with [3H]DHT with human cancer epithelial breast cell lines MDAMB-45. IC50 value was obtained from dose-response displacement curves. The inhibition constant (Ki) was calculated from IC50 value by the Cheng and Prusoff equation. EC50 value was obtained from functional transactivation assay, which was conducted to assess the potency and efficacy of agonist/antagonist in stably transfected mouse myoblast C2C12 cell line utilizing a luciferase reporter.

SMILES	pEC50	pKi
Cc1c(/N=C2\O[C@H](C(C)C)[C@@H]3[C@H](O)CCN23)ccc(C#N)c1Cl [oxazolidin-2-imine, 6g]	8.43	9.15
Cc1c(N2/C(=N/C#N)N3CC[C@H](O)[C@H]3[C@@H]2C)ccc(C#N)c1Cl [cyanoguanidine, 15]	5.96	7.77
